We go through 13 compounds from PubChem BioAssay (NCI).

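Grown in 96-well plates, cells were treated for 48 hours with each compound at five concentrations. Insufficient inhibition: endpoint recorded as highest concentration tested. TGI marks complete inhibition of growth.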

Test systems include UO-31 renal; CCRF-CEM leukemia; SR leukemia; SNB-19 CNS; SF-539 CNS; NCI-H460 lung; KM12 colon; SK-OV-3 ovarian; MOLT-4 leukemia.
Common to all, as to assay: inhibition of tumour cell growth, NCI panel, 48 h

With `Cc1ccc(S(=O)(=O)N/N=C2\C3CC4CC(C3)C2C4)cc1` (stereo unspecified), the TGI in the experiment with UO-31 renal, in the experiment with CCRF-CEM leukemia, with SR leukemia, in the experiment on SNB-19 CNS, in the experiment on SF-539 CNS and in the experiment on NCI-H460 lung was above 100 µM throughout. Moreover, the TGI with KM12 colon, in the experiment on SK-OV-3 ovarian and with MOLT-4 leukemia was above 100 µM throughout.
`CC(=O)Nc1ccc(C(=O)N2N=C(C)/C(=C/c3ccc(O)cc3)C2=O)cc1`: the TGI with UO-31 renal, with CCRF-CEM leukemia, with SR leukemia, in the experiment with SNB-19 CNS, in the experiment with SF-539 CNS and with NCI-H460 lung was above 100 µM in each case. The TGI with KM12 colon and in the experiment on MOLT-4 leukemia was above 100 µM in each case.
For the compound `OC12CCCCCC1(N1CCOCC1)c1ccccc12` (stereo unspecified), the TGI in the experiment with UO-31 renal, in the experiment with CCRF-CEM leukemia, with SNB-19 CNS, with SF-539 CNS, with NCI-H460 lung and in the experiment with KM12 colon was above 100 µM in each case. Moreover, the TGI in the experiment with SK-OV-3 ovarian and in the experiment with MOLT-4 leukemia was above 100 µM in each case.
For `Nc1c(N=Nc2ccc(-c3ccc(N=Nc4c(O)ccc5cc(S(=O)(=O)O)cc(S(=O)(=O)O)c45)cc3)cc2)c(S(=O)(=O)O)cc2cc(S(=O)(=O)O)c(N=Nc3ccccc3)c(O)c12`, the TGI in the experiment on CCRF-CEM leukemia, in the experiment on SNB-19 CNS, in the experiment on SF-539 CNS, in the experiment on NCI-H460 lung, in the experiment with KM12 colon and in the experiment on SK-OV-3 ovarian was above 100 µM throughout. In the experiment with MOLT-4 leukemia, this compound displayed a TGI above 100 µM.
With `Cc1cc2occ(-c3ccc(Cl)cc3)c2c(=O)o1`, the TGI in the experiment on UO-31 renal, in the experiment with CCRF-CEM leukemia, in the experiment on SR leukemia, in the experiment on SNB-19 CNS, in the experiment on SF-539 CNS and in the experiment with NCI-H460 lung was above 100 µM throughout. Moreover, the TGI in the experiment with KM12 colon, in the experiment with SK-OV-3 ovarian and with MOLT-4 leukemia was above 100 µM in each case.
`Cc1cc(=O)[nH]c(NNC(C#N)c2ccc([N+](=O)[O-])cc2)n1` (stereo unspecified): the TGI in the experiment on UO-31 renal, with CCRF-CEM leukemia, in the experiment on SR leukemia, in the experiment on SF-539 CNS, in the experiment with NCI-H460 lung and in the experiment on KM12 colon was above 100 µM in each case. Moreover, the TGI in the experiment on SK-OV-3 ovarian and with MOLT-4 leukemia was above 100 µM in each case.
As for `CCOC(=O)c1nc2ccccc2nc1NCc1ccc(Cl)cc1Cl`, the TGI in the experiment on UO-31 renal, with CCRF-CEM leukemia, in the experiment with SR leukemia, in the experiment on SNB-19 CNS, with SF-539 CNS and in the experiment on NCI-H460 lung was above 100 µM throughout. For the same compound, the TGI in the experiment with KM12 colon, with SK-OV-3 ovarian and in the experiment with MOLT-4 leukemia was above 100 µM throughout.
For `CCOC(=O)C1CCCCc2sc(N)c(C#N)c21` (stereo unspecified), the TGI in the experiment with UO-31 renal, in the experiment with SR leukemia, in the experiment on SNB-19 CNS, in the experiment on NCI-H460 lung, in the experiment with KM12 colon and in the experiment with MOLT-4 leukemia was above 100 µM each time.
`Cc1cc(S(=O)(=O)O)c(NC(=O)c2oc3cc(O)ccc3c(=O)c2C)cc1Cl`: the TGI with UO-31 renal, in the experiment with SNB-19 CNS, in the experiment with SF-539 CNS, with NCI-H460 lung, with KM12 colon and in the experiment on SK-OV-3 ovarian was above 100 µM each time. Further, the TGI in the experiment with MOLT-4 leukemia was above 100 µM.
On to `COC(=O)n1c(C[P+](c2ccccc2)(c2ccccc2)c2ccccc2)cc2ccccc21`, for which the TGI in the experiment with CCRF-CEM leukemia stood at 21.1 µM; in the experiment on SR leukemia it was 25 µM; in the experiment on SNB-19 CNS, 10.8 µM; in the experiment on SF-539 CNS it was 14.7 µM; in the experiment with NCI-H460 lung it was 12.2 µM; in the experiment with KM12 colon, 3.94 µM. Also, the TGI with SK-OV-3 ovarian is 3.59 µM; in the experiment with MOLT-4 leukemia, 17.8 µM.
For `CCOc1ccc(-c2oc(/C=N/NS(=O)(=O)c3ccc(C)cc3)c([N+](=O)[O-])c2-c2ccc(OCC)cc2)cc1`, the TGI is 28.7 µM with UO-31 renal; 8.04 µM in the experiment on CCRF-CEM leukemia; 43.1 µM in the experiment on SNB-19 CNS; 30.7 µM in the experiment on SF-539 CNS; 29.7 µM in the experiment with NCI-H460 lung; 25.3 µM in the experiment on KM12 colon. The figures for the TGI with SK-OV-3 ovarian and with MOLT-4 leukemia were 42.7 µM and above 24.8 µM, respectively.
For the compound `CC(=O)NC1=C(NCC(C)C)C(=O)c2ccccc2C1=O`, the TGI in the experiment with UO-31 renal was 34.4 µM; with CCRF-CEM leukemia, 28.4 µM; in the experiment with SNB-19 CNS, above 100 µM; in the experiment with SF-539 CNS it was 32.2 µM; in the experiment with NCI-H460 lung, above 100 µM; in the experiment with KM12 colon, above 100 µM. Also, the TGI with SK-OV-3 ovarian and in the experiment with MOLT-4 leukemia was above 100 µM each time.
As to `COC(=O)C(C(=O)C(=O)NC1Nc2ccc(C)cc2S1)c1nc2ccc(Cl)cc2[nH]c1=O` (stereo unspecified), the TGI with UO-31 renal, in the experiment on SNB-19 CNS, with SF-539 CNS, with NCI-H460 lung, in the experiment with KM12 colon and in the experiment on SK-OV-3 ovarian was above 100 µM each time.
